Measured values taken from patent publication US20130035229A1 (priority 2010, published 2013).
Where two headings read alike, the source gives them in different places.

Columns and labels:
Botrytis cinerea = assay: Microtest: activity against the grey mold pathogen Botrytis cinerea (micro titer plate, absorption 405 nm, 7 days); type: cell-based; conditions: single compound, 7 days after inoculation
Pyricularia oryzae = type: cell-based; conditions: single compound, 7 days after inoculation

COc1cc(CCNc2ncnc3c(F)cc(F)c(F)c23)ccc1Oc1cc(C(F)(F)F)ccn1 [I-19, (5,6,8-Trifluoro-quinazolin-4-yl)-{2-[4-(4-trifluoromethyl-pyridin-2-yloxy)-3-methoxy-phenyl]-ethyl}-amine]
Observed efficacy (Botrytis cinerea; 1 ppm): 12%

Fc1ccc(F)c2c(NCCc3ccc(Oc4cc(C(F)(F)F)ccn4)cc3)ncnc12 [I-5, (5,8-Difluoro-quinazolin-4-yl)-{2-[4-(4-trifluoromethyl-pyridin-2-yloxy)-phenyl]-ethyl}-amine]
Observed efficacy (Botrytis cinerea; 1 ppm): 14% | Observed efficacy (Pyricularia oryzae; 4 ppm): 58%

COc1cc(CCNc2ncnc3c(F)ccc(F)c23)ccc1Oc1cc(C(F)(F)F)ccn1 [I-18, (5,8-Difluoro-quinazolin-4-yl)-{2-[4-(4-trifluoromethyl-pyridin-2-yloxy)-3-methoxy-phenyl]-ethyl}-amine]
Observed efficacy (Botrytis cinerea; 4 ppm): 4% | Observed efficacy (Pyricularia oryzae; 4 ppm): 57%

Cn1cc(C(=O)Nc2ccccc2-c2cc(F)c(F)c(F)c2)c(C(F)F)n1 [Fluxapyroxad, reference compound]
Observed efficacy (Botrytis cinerea; 0.063 ppm): 29%

Fc1cccc([C@@]2(Cn3ncnc3S)O[C@@H]2c2ccccc2Cl)c1 (relative stereo) [II-1, 2-[rel-(2S;3R)-3-(2-chlorophenyl)-2-(3-fluorophenyl)-oxiranylmethyl]-2H-[1,2,4]triazole-3-thiol]
Observed efficacy (Botrytis cinerea; 16 ppm): 8% | Observed efficacy (Botrytis cinerea; 63 ppm): 24% | Observed efficacy (Pyricularia oryzae; 63 ppm): 27%

COc1cc(CCNc2ncnc3c(F)ccc(F)c23)ccc1Oc1ncc(C(F)(F)F)cc1Cl [I-17, (5,8-Difluoro-quinazolin-4-yl)-{2-[4-(3-chloro-5-trifluoromethyl-pyridin-2-yloxy)-3-methoxy-phenyl]-ethyl}-amine]
Observed efficacy (Botrytis cinerea; 4 ppm): 5% | Observed efficacy (Pyricularia oryzae; 4 ppm): 56%
